Assay results reported in patent US20260258050A1, “IMMUNOMODULATOR” (HITGEN INC., priority 2023, published 2026).

Columns and labels:
Human IL-17A = target: T1, Human IL-17A (Homo sapiens, UniProt Q16552); assay: Inhibition of human IL-17A protein-induced GROα/CXCL1 production in HT-29 cells; assay type: cell-based; set-up: purchased R&D 317-ILB; host or cells: added exogenously to HT-29 cells; details: 30 ng/mL human IL-17A protein, 48 h, GROα in supernatant by ELISA kit, read-out: Inhibitory IC50 of compounds on HT-29 cell GROα/CXCL1
T1 sequence (Q16552 20-155 limits assumed): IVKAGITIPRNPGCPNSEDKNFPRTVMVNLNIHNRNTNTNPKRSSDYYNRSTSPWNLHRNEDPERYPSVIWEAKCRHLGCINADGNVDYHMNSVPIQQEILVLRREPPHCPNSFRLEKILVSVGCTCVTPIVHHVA
Procedure, shortened: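 Compound dilutions were preincubated 1 h at 37 °C with 30 ng/mL human IL-17A, then added to HT-29 cells (5×10^4/well) for 48 h at 37 °C. GROα in supernatant quantified by ELISA; IC50 for inhibition of its production. Positive control: IL-17A antibody at […].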

Human IL-17AF = target: T2, Human IL-17AF (Homo sapiens, UniProt Q16552+Q96PD4); assay: IL-17AF ELISA (competitive ELISA, IL-17AF/IL-17Ra receptor-ligand binding); details: human IL-17AF coated plate, human IL-17Ra, read-out: IC50, inhibitory activity of compounds on human IL-17AF
T2 construct: purchased Sino Biological Inc. CT047-H08H
T2 sequence (Q16552 24-155): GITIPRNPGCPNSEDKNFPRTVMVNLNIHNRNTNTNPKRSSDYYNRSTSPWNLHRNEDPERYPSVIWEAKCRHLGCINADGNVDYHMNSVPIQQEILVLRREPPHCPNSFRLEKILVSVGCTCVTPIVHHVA
T2 sequence (Q96PD4 31-163): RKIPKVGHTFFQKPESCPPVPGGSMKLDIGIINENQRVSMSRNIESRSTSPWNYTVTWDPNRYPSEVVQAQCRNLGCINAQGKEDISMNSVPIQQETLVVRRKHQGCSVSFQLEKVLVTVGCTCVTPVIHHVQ
Procedure: Experiment Example 2 IL-17AF ELISA
The inhibitory effects of human IL-17AF inhibitors on receptor-ligand binding were quantitatively determined by a competitive ELISA.
The ELISA was performed through the following steps.
Human IL-17AF (Sino Biological Inc., Cat #CT047-H08H) was diluted with coating buffer (50 mM PBS, pH 7.4) to reach a concentration of 0.625 μg/ml. 100 μL of the resulting solution was added to each well of a 96-well plate, and the plate was incubated at 37° C. for 30 min. In the blank group, 100 μL of coating buffer was added instead of the IL-17AF solution.
The plate was washed four times with 10 mM PBST (pH 7.4). 200 μL was used per well for each wash. After the final wash, the plate was tapped dry on absorbent paper.
Fresh 5% (w/v) skim milk solution was prepared before the experiment. For example, 5 grams of skim milk powder (Bio-Rad, Cat #170-6404) was completely dissolved in 100 mL of 10 mM PBST. 200 μL of the 5% (w/v) skim milk solution was added to each well, and the plate was incubated on a shaker at 25° C. for 30 min.
(S4) Preparation of 100× to-be-Tested Compound Solutions
During step (S3), the to-be-tested compound solutions were prepared. Each powdered compound was dissolved in dimethyl sulfoxide (DMSO) to reach a stock concentration of 10 mM. The to-be-tested compound solutions were then serially diluted four-fold with DMSO to obtain nine concentrations ranging from […].
(S6) Pre-Incubation of IL-17AF with to-be-Tested Compound Solutions
89 μL of PBST and 1 μL of each of the to-be-tested compound solutions were added to each well and mixed. The plate was pre-incubated at 25° C. for 10 min. In the blank group and the control group, 1 μL of DMSO was added instead of the to-be-tested compound solutions.
(S7) Incubation with Human IL-17Ra
10 μL of 100 nM IL-17Ra (Sino Biological Inc., Cat #10895-H03H) was added to each well, followed by incubation on a shaker at 25° C. for 30 min. The receptor solution was prepared in 10 mM PBST.
(S9) Incubation with Horseradish Peroxidase-Conjugated Antibody
100 μL of mouse anti-Fc tag HRP-conjugated antibody (Sino Biological Inc., Cat #10702-MM01T-H) was added to each well. The plate was incubated on a shaker at 25° C. for 30 min. The antibody was diluted with 5% (w/v) skim milk solution at 1:5,000 (v/v).
100 μL of TMB substrate solution (BD, Cat #555214) was added to each well. Substrate A and substrate B were freshly mixed at a volume ratio of 1:1 before use. The plate was incubated in the dark at 25° C. for 5-15 min.
(S12) Termination and Detection
The color reaction was terminated by addition of 2.5 M HCl. Absorbance was measured at 450 nm using a BMG PHERStar microplate reader.
(S13) Calculation of Half-Maximal Inhibitory Concentration (IC50)
The relative percent residual activity at each compound concentration was calculated according to Equation 1. The IC50 value of each test compound was then calculated in GraphPad 6 using the equation for log(inhibitor) versus normalized response with variable slope, as shown in Equation 2.
relative percent residual activity (%)=[(absorbance of sample−absorbance of blank group)/(absorbance of control group−absorbance of blank group)]%. Equation 1: […]
The compounds prepared in the Examples were tested for IL-17AF inhibitory activity according to the above method.

Row | IC50 (Human IL-17A) [nM] | IC50 (Human IL-17AF) [nM] | Structure (SMILES)
1 | ≤ 100 | 100 to 500 | Cc1[nH]nc2c1-c1cc(F)c(NC(=O)[C@@H](NC(=O)c3ccnn3C(C)C)C(C3CC3)C3CC3)cc1CN(C(C)C(F)(F)F)C(=O)C2 (mixture of isomers) [compound 173]
2 | ≤ 100 | 100 to 500 | Cc1[nH]nc2c1-c1cc(F)c(NC(=O)[C@@H](NC(=O)c3ccnn3C(C)C3CC3)C(C3CC3)C3CC3)cc1COCC2 (single isomer, unassigned) [compound 41a]
3 | ≤ 100 | ≤ 100 | Cc1[nH]nc2c1-c1cc(F)c(NC(=O)[C@@H](NC(=O)c3ccnn3C(C)C3CC3)C(C3CC3)C3CC3)cc1COCC2 (single isomer, unassigned) [compound 41b]
4 | ≤ 100 | ≤ 100 | Cc1[nH]nc2c1-c1cc(F)c(NC(=O)[C@@H](NC(=O)c3ccnn3C(C)CF)C(C3CC3)C3CC3)cc1COCC2 (single isomer, unassigned) [compound 42a]
5 | 100 to 500 | ≤ 100 | Cc1[nH]nc2c1-c1cc(F)c(NC(=O)[C@@H](NC(=O)c3ccnn3C(C)CF)C(C3CC3)C3CC3)cc1COCC2 (single isomer, unassigned) [compound 42b]
6 | ≤ 100 | 100 to 500 | Cc1[nH]nc2c1-c1cc(F)c(NC(=O)[C@@H](NC(=O)c3ccnn3C(C)C)C(C3CC3)C3CC3)cc1CN(C(C)C(F)(F)F)C(=O)C2 (single isomer, unassigned) [compound 186a]
7 | 100 to 500 | 100 to 500 | Cc1[nH]nc2c1-c1cnc(NC(=O)[C@@H](NC(=O)c3ccnn3C(C)C3CC3)C(C3CC3)C3CC3)cc1COCC2 (single isomer, unassigned) [compound 188a]
8 | ≤ 100 | 100 to 500 | Cc1[nH]nc2c1-c1cnc(NC(=O)[C@@H](NC(=O)c3ccnn3C(C)C3CC3)C(C3CC3)C3CC3)cc1COCC2 (single isomer, unassigned) [compound 188b]
9 | ≤ 100 | 100 to 500 | Cc1[nH]nc2c1-c1cnc(NC(=O)[C@@H](NC(=O)c3ccnn3C(C)CF)C(C3CC3)C3CC3)cc1COCC2 (single isomer, unassigned) [compound 189a]
10 | 100 to 500 | 100 to 500 | Cc1[nH]nc2c1-c1cnc(NC(=O)[C@@H](NC(=O)c3ccnn3C(C)CF)C(C3CC3)C3CC3)cc1COCC2 (single isomer, unassigned) [compound 189b]
11 | 100 to 500 | ≤ 100 | Cc1[nH]nc2c1-c1ccc(NC(=O)[C@@H](NC(=O)c3ccnn3C)C(C3CC3)C3CC3)cc1COCC2 [compound 2]
12 | ≤ 100 | ≤ 100 | Cc1[nH]nc2c1-c1cc(F)c(NC(=O)[C@@H](NC(=O)c3ccnn3C(C)C)C(C3CC3)C3CC3)cc1COCC2 [compound 15]
13 | 100 to 500 | 100 to 500 | CCn1nccc1C(=O)N[C@H](C(=O)Nc1cc2c(cc1F)-c1c(n[nH]c1C)CCOC2)C(C1CC1)C1CC1 [compound 16]
14 | 100 to 500 | 100 to 500 | Cc1[nH]nc2c1-c1cc(F)c(NC(=O)[C@@H](NC(=O)c3ccnn3C)C(C3CC3)C3CC3)cc1COCC2 [compound 17]
15 | ≤ 100 | ≤ 100 | Cc1[nH]nc2c1-c1ccc(NC(=O)[C@@H](NC(=O)c3ccnn3C(C)C)C(C3CC3)C3CC3)cc1CN(C)C(=O)C2 [compound 22]
16 | ≤ 100 | ≤ 100 | CCn1nccc1C(=O)N[C@H](C(=O)Nc1ccc2c(c1)CN(C)C(=O)Cc1n[nH]c(C)c1-2)C(C1CC1)C1CC1 [compound 23]

Row | IC50 (Human IL-17A) [nM] | IC50 (Human IL-17AF) [nM] | Structure (SMILES)
17 | 100 to 500 | 100 to 500 | Cc1[nH]nc2c1-c1ccc(NC(=O)[C@@H](NC(=O)c3ccnn3C(C)C)C(C3CC3)C3CC3)cc1CNC(=O)C2 [compound 27]
18 | 100 to 500 | ≤ 100 | CCn1nccc1C(=O)N[C@H](C(=O)Nc1ccc2c(c1)CNC(=O)Cc1n[nH]c(C)c1-2)C(C1CC1)C1CC1 [compound 28]
19 | 100 to 500 | ≤ 100 | CCn1nccc1C(=O)N[C@H](C(=O)Nc1cc2c(cc1F)-c1c(n[nH]c1C)CCOC2)[C@H]1CC[C@H](C)CC1 [compound 46]
20 | 100 to 500 | 100 to 500 | Cc1[nH]nc2c1-c1cc(F)c(NC(=O)[C@@H](NC(=O)c3ccnn3C(C)C)C3CCCCC3)cc1COCC2 [compound 48]
21 | ≤ 100 | 100 to 500 | [2H]C([2H])([2H])C([2H])(n1nccc1C(=O)N[C@H](C(=O)Nc1ccc2c(c1)COCCc1n[nH]c(C)c1-2)C(C1CC1)C1CC1)C([2H])([2H])[2H] [compound 52]
22 | ≤ 100 | ≤ 100 | [2H]C([2H])([2H])C([2H])(n1nccc1C(=O)N[C@H](C(=O)Nc1cc2c(cn1)-c1c(n[nH]c1C)CCOC2)C(C1CC1)C1CC1)C([2H])([2H])[2H] [compound 54]
23 | 100 to 500 | ≤ 100 | COCCCn1nccc1C(=O)N[C@H](C(=O)Nc1cc2c(cc1F)-c1c(n[nH]c1C)CCOC2)C(C1CC1)C1CC1 [compound 58]
24 | 100 to 500 | 100 to 500 | Cc1[nH]nc2c1-c1cc(F)c(NC(=O)[C@@H](NC(=O)c3ccnn3CC3CC3)C(C3CC3)C3CC3)cc1COCC2 [compound 59]
25 | 100 to 500 | ≤ 100 | Cc1[nH]nc2c1-c1cc(F)c(NC(=O)[C@@H](NC(=O)c3ccnn3CC3CCC3)C(C3CC3)C3CC3)cc1COCC2 [compound 60]
26 | 100 to 500 | ≤ 100 | CSCCn1nccc1C(=O)N[C@H](C(=O)Nc1cc2c(cc1F)-c1c(n[nH]c1C)CCOC2)C(C1CC1)C1CC1 [compound 61]
27 | 100 to 500 | ≤ 100 | CCCn1nccc1C(=O)N[C@H](C(=O)Nc1cc2c(cc1F)-c1c(n[nH]c1C)CCOC2)C(C1CC1)C1CC1 [compound 62]
28 | 100 to 500 | ≤ 100 | Cc1[nH]nc2c1-c1cc(F)c(NC(=O)[C@@H](NC(=O)c3ccnn3CCC(F)F)C(C3CC3)C3CC3)cc1COCC2 [compound 65]
29 | 100 to 500 | ≤ 100 | [2H]C([2H])(C1CC1)n1nccc1C(=O)N[C@H](C(=O)Nc1cc2c(cc1F)-c1c(n[nH]c1C)CCOC2)C(C1CC1)C1CC1 [compound 76]
30 | 100 to 500 | ≤ 100 | Cc1[nH]nc2c1-c1cc(F)c(NC(=O)[C@@H](NC(=O)c3ccnn3CCC(O)C(F)(F)F)C(C3CC3)C3CC3)cc1COCC2 (stereo partly shown) [compound 81]
31 | ≤ 100 | 100 to 500 | Cc1[nH]nc2c1-c1cc(F)c(NC(=O)[C@@H](NC(=O)c3ccnn3CCCC(F)(F)F)C(C3CC3)C3CC3)cc1COCC2 [compound 84]
32 | ≤ 100 | ≤ 100 | Cc1[nH]nc2c1-c1cc(F)c(NC(=O)[C@@H](NC(=O)c3ccnn3CCCF)C(C3CC3)C3CC3)cc1COCC2 [compound 86]
